Where two headings read alike, the source gives them in different places.
Experiments:
Aβ40 [1] = biological target: T1, Aβ40 (Homo sapiens, UniProt P05067); assay: Inhibition of Aβ40 self-aggregation (thioflavin T fluorescence, 2% HFIP); settings: for inhibition at 100 µM: read-out: Aβ40 Aggregation Inhibition % at 100 μM
Protocol: All the newly prepared compounds were tested in a routine in vitro assay of inhibition of Aβ40 self-aggregation [25].
(§1) All assays were performed in 96-well plates (Greiner Bio-One, Kremsmünster, Austria) using an Infinite M1000 Pro plate reader (Tecan, Cernusco s.N., Italy). Inhibition data were obtained as mean ± SD (for single concentration points) or mean ± SEM from three independent experiments (for IC50s), using Prism (GraphPad Prism version 5.00 for Windows, GraphPad Software, San Diego, CA, USA).
Assay of aggregation of Aβ40 (EzBiolab, Carmel, IN, USA) was performed as described [25], using 2% of 1,1,1,3,3,3-hexafluoro-2-propanol as aggregation enhancer and spectrofluorimetric detection of thioflavin T fluorescence as the probe of amyloid aggregation.

[2] = biological target: T2, human recombinant monoamine oxidase B (Homo sapiens, UniProt P27338); assay: Inhibition of monoamine oxidase B (kynuramine); type: biochemical; settings: for IC50: read-out: hMAO B IC50; for inhibition at 10 µM: read-out: hMAO B % Inhib. at 10 μM
T2 construct: purchased Sigma Aldrich; host or cells: baculovirus infected insect cells (microsomes)
T2 sequence (P27338 1-520): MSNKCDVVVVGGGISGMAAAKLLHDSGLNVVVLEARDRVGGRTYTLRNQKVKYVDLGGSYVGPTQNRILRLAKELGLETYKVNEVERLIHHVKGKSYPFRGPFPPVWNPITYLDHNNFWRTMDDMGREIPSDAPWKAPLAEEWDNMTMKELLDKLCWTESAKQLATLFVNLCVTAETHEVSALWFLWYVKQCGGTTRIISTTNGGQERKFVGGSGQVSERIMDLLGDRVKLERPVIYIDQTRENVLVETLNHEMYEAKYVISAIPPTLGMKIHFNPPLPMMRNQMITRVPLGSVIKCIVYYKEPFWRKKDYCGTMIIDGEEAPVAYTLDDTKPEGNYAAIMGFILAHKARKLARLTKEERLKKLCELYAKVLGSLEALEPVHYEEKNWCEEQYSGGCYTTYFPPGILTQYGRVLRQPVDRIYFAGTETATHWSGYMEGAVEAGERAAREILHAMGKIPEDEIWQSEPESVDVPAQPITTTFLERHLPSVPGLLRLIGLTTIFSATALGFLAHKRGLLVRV
Protocol: as §1
(§2) Inhibition of human recombinant monoamine oxidases A (250 U/mg) and B (59 U/mg; microsomes from baculovirus infected insect cells; Sigma Aldrich) was determined as already described [48], measuring the fluorescence of 4-hydroxyquinoline produced by the oxidative deamination of substrate kynuramine.

[3] = biological target: T3, human recombinant monoamine oxidase A (Homo sapiens, UniProt P21397); assay: Inhibition of monoamine oxidase A (kynuramine); type: biochemical; settings: for inhibition at 10 µM: read-out: hMAO A % Inhib. at 10 μM; for IC50: read-out: hMAO A IC50
T3 construct: purchased Sigma Aldrich; host or cells: baculovirus infected insect cells (microsomes)
T3 sequence (P21397 1-527): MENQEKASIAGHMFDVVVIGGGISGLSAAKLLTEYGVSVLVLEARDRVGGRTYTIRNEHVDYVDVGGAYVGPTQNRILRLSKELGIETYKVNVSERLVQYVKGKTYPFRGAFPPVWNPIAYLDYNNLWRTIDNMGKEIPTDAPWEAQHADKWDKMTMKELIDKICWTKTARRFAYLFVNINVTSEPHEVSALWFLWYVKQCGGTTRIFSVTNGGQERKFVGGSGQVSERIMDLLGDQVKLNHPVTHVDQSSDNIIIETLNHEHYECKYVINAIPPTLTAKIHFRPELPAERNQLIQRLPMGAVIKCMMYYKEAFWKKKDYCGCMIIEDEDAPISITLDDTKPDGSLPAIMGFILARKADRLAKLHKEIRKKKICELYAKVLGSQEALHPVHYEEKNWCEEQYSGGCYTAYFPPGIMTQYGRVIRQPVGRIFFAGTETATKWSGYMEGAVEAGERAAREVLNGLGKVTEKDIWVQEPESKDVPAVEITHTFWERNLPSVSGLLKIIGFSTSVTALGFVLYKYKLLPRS
Protocol: as §1, §2

human recombinant AChE = biological target: T4, human recombinant AChE (Homo sapiens, UniProt P22303); assay: biochemical; settings: read-out: hAChE % Inhib. at 10 μM
T4 construct: purchased Sigma Aldrich
T4 sequence (P22303 32-614): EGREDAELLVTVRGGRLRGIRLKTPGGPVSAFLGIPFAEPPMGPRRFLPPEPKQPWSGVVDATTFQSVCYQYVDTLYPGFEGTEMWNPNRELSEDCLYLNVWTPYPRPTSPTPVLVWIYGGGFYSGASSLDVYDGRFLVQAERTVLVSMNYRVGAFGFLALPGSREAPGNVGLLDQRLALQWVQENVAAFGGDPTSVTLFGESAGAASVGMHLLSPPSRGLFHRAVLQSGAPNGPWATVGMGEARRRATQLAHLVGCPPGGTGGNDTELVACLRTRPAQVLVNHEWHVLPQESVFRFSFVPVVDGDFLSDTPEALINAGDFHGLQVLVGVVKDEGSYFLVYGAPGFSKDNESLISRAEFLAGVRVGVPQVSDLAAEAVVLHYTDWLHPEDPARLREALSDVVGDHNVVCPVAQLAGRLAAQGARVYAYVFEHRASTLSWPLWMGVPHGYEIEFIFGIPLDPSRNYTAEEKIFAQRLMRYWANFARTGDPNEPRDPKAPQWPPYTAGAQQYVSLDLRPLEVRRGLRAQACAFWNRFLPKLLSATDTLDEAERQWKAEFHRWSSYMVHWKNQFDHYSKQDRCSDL
Protocol: as §1

Aβ40 [4] = biological target: T1, Aβ40; settings: supplement, training set, cited from earlier work

T1 sequence (P05067 672-711 limits assumed): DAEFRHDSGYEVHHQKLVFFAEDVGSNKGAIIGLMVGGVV

## N/N=C1\C(=O)Nc2ccccc21 [Compound 2]
Aβ40 [1]
  inhibition at 100 µM: 17 ± 2%

## COc1ccc2c(c1)C(=O)C(=O)N2Cc1ccccc1 [Compound 10]
Aβ40 [1]
  inhibition at 100 µM: 52 ± 1%

## COc1ccc2c(c1)C(=O)C(=O)N2CCc1ccccc1 [Compound 11]
Aβ40 [1]
  IC50: 15 ± 1 µM
[2]
  IC50: 2.7 ± 0.3 µM
[3]
  inhibition at 10 µM: 20 ± 4%
Human recombinant AChE
  inhibition at 10 µM: 47 ± 5%

## COc1ccc2c(c1)C(=O)C(=O)N2CCCc1ccccc1 [Compound 12]
Aβ40 [1]
  IC50: 19 ± 4 µM

## COc1ccc2c(c1)C(=O)C(=O)N2CN1CCOCC1 [Compound 13, 5-Methoxy-1-(morpholinomethyl)indoline-2,3-dione]
Aβ40 [1]
  inhibition at 100 µM: 23 ± 5%
[2]
  IC50: 4.4 ± 0.1 µM
[3]
  inhibition at 10 µM: 7 ± 2%
Human recombinant AChE
  inhibition at 10 µM: 26 ± 1%

## COc1ccc2c(c1)C(=O)C(=O)N2C1CC1 [Compound 14]
Aβ40 [1]
  inhibition at 100 µM: 38 ± 5%

## COc1ccc2c(c1)C(=NNc1ccc(C(C)C)cc1)C(=O)N2CCN(C)C [Compound 18, 1-(2-(Dimethylamino)ethyl)-3-(2-(4-isopropylphenyl)hydrazineylidene)-5-methoxyindolin-2-one]
Aβ40 [1]
  IC50: 1.3 ± 0.1 µM
[2]
  inhibition at 10 µM: 47 ± 2%
[3]
  inhibition at 10 µM: 31 ± 4%
Human recombinant AChE
  inhibition at 10 µM: 23 ± 1%

## CC(C)c1ccc(NN=C2C(=O)N(Cc3ccccc3)c3ccc(O)cc32)cc1 [Compound 19, 1-Benzyl-5-hydroxy-3-(2-(4-isopropylphenyl)hydrazineylidene)indolin-2-one]
Aβ40 [1]
  IC50: 1.6 ± 0.3 µM
[2]
  inhibition at 10 µM: 46 ± 5%
[3]
  inhibition at 10 µM: 18 ± 4%
Human recombinant AChE
  inhibition at 10 µM: 31 ± 1%

## CC(C)c1ccc(NN=C2C(=O)N(C3CC3)c3ccc(O)cc32)cc1 [Compound 20, 1-Cyclopropyl-5-hydroxy-3-(2-(4-isopropylphenyl)hydrazono)indolin-2-one]
Aβ40 [1]
  inhibition at 100 µM: 26 ± 3%

## O=C1Nc2ccccc2C1=NNc1cccc2ccccc12 [Compound 23, 3-(2-(Naphthalen-1-yl)hydrazono)indolin-2-one]
Aβ40 [1]
  IC50: 4.8 ± 0.5 µM
[2]
  IC50: 5.3 ± 0.3 µM
[3]
  IC50: 7.1 ± 0.3 µM
Human recombinant AChE
  inhibition at 10 µM: 40 ± 3%

## O=C1Nc2ccccc2C1=NNc1ccc2ccccc2c1 [Compound 24, 3-(2-(Naphthalen-2-yl)hydrazono)indolin-2-one]
Aβ40 [1]
  IC50: 10 ± 2 µM

## O=C1Nc2ccccc2C1=NNc1cccc2cccnc12 [Compound 25, 3-(2-(Quinolin-8-yl)hydrazineylidene)indolin-2-one]
Aβ40 [1]
  inhibition at 100 µM: 63 ± 5%

## CC(C)c1ccc(NN=Cc2c[nH]c3ccccc23)cc1 [Compound 28, 3-((2-(4-Isopropylphenyl)hydrazono)methyl)-1H-indole]
Aβ40 [1]
  IC50: 18 ± 2 µM

## COc1ccc2[nH]cc(C=NNc3ccc(C#N)cc3)c2c1 [Compound 29, 4-(2-((5-Methoxy-1H-indol-3-yl)methylene)hydrazineyl)benzonitrile]
Aβ40 [1]
  inhibition at 100 µM: 56 ± 1%

## Clc1cccc(N/N=C/c2c[nH]c3ccccc23)c1 [Compound 30]
Aβ40 [1]
  IC50: 13 ± 2 µM

## COc1ccc2[nH]cc(C=NNc3cccc(Cl)c3)c2c1 [Compound 31, 3-((2-(3-Chlorophenyl)hydrazineylidene)methyl)-5-methoxy-1H-indole]
Aβ40 [1]
  IC50: 9.2 ± 0.7 µM

## Clc1ccc(NN=Cc2c[nH]c3ccccc23)cc1 [Compound 32, 3-((2-(4-Chlorophenyl)hydrazono)methyl)-1H-indole]
Aβ40 [1]
  IC50: 8.4 ± 0.6 µM
[2]
  IC50: 0.23 ± 0.03 µM
[3]
  IC50: 0.34 ± 0.01 µM
Human recombinant AChE
  inhibition at 10 µM: 41 ± 5%

## COc1ccc2[nH]cc(/C=N/Nc3ccc(Cl)cc3)c2c1 [Compound 33]
Aβ40 [1]
  IC50: 22 ± 2 µM

## COc1ccc2[nH]cc(C=NNc3ccccn3)c2c1 [Compound 34, 5-Methoxy-3-((2-(pyridin-2-yl)hydrazineylidene)methyl)-1H-indole]
Aβ40 [1]
  inhibition at 100 µM: 20 ± 2%

## COc1ccc2[nH]cc(C=NNc3ccc4ccccc4n3)c2c1 [Compound 35, 2-(2-((5-Methoxy-1H-indol-3-yl)methylene)hydrazineyl)quinoline]
Aβ40 [1]
  IC50: 12 ± 2 µM
[2]
  IC50: 6.5 ± 0.6 µM
[3]
  IC50: 3.8 ± 0.3 µM
Human recombinant AChE
  inhibition at 10 µM: 38 ± 2%

## COc1ccc2[nH]cc(C=NNc3ccnc4cc(Cl)ccc34)c2c1 [Compound 36, 7-Chloro-4-(2-((5-methoxy-1H-indol-3-yl)methylene)hydrazineyl)quinoline]
Aβ40 [1]
  IC50: 13 ± 1 µM

## Clc1c(C=NNc2ccccc2)[nH]c2ccc(Br)cc12 [Compound 40, 5-Bromo-3-chloro-2-((2-phenylhydrazineylidene)methyl)-1H-indole]
Aβ40 [1]
  IC50: 25 ± 3 µM

## CC(C)c1ccc(NN=Cc2[nH]c3ccc(Br)cc3c2Cl)cc1 [Compound 41, 5-Bromo-3-chloro-2-((2-(4-isopropylphenyl)hydrazineylidene)methyl)-1H-indole]
Aβ40 [1]
  inhibition at 100 µM: 63 ± 6%

## CC1(C)OC(=O)C(C=C2Nc3ccccc3C2=O)C(=O)O1 [Compound 44]
Aβ40 [1]
  inhibition at 100 µM: 44 ± 1%

## COc1ccc2[nH]cc(/C=N/NC(=O)c3ccc(F)cc3)c2c1 [Compound 45]
Aβ40 [1]
  inhibition at 100 µM: 0%

## O=C1Nc2ccc([N+](=O)[O-])cc2/C1=N/Nc1ccc(Cl)cc1 [Compound S45]
Aβ40 [4]
  % inhib. @ 100 µM: 12±2%

## O=C1Nc2ccccc2/C1=N/Nc1ccc(O)cc1 [Compound S46]
Aβ40 [4]
  IC50: 9.3 µM

## O=C1Nc2ccc(O)cc2/C1=N/Nc1ccccc1 [Compound S47]
Aβ40 [4]
  % inhib. @ 100 µM: 62±3%

## O=C1Nc2ccc(O)cc2/C1=N/Nc1cccc(Cl)c1 [Compound S48]
Aβ40 [4]
  IC50: 18 µM

## CC(C)c1ccc(N/N=C2\C(=O)Nc3ccc(O)cc32)cc1 [Compound S49]
Aβ40 [4]
  IC50: 21 µM

## O=C1Nc2ccc(O)cc2/C1=N/Nc1ccc(O)cc1 [Compound S50]
Aβ40 [4]
  % inhib. @ 100 µM: 61±2%

## O=C1Nc2cc(O)ccc2/C1=N/Nc1ccccc1 [Compound S51]
Aβ40 [4]
  IC50: 22 µM

## CC(C)c1ccc(N/N=C2\C(=O)Nc3cc(O)ccc32)cc1 [Compound S52]
Aβ40 [4]
  IC50: 6 µM

## O=C1Nc2ccccc2/C1=N/Nc1ccccc1Cl [Compound S53]
Aβ40 [4]
  % inhib. @ 100 µM: 44±5%

## O=C1Nc2cc(O)c(O)cc2/C1=N/Nc1ccccc1 [Compound S54]
Aβ40 [4]
  IC50: 4.3 µM

## O=C1Nc2cc(O)c(O)cc2/C1=N/Nc1ccccc1Cl [Compound S55]
Aβ40 [4]
  IC50: 11 µM

## O=C1Nc2cc(O)c(O)cc2/C1=N/Nc1ccc(Cl)cc1 [Compound S57]
Aβ40 [4]
  IC50: 17 µM

## CC(C)c1ccc(N/N=C2\C(=O)Nc3cc(O)c(O)cc32)cc1 [Compound S58]
Aβ40 [4]
  IC50: 1.6 µM

## O=C1Nc2cc(O)c(O)cc2/C1=N/Nc1ccc(O)cc1 [Compound S59]
Aβ40 [4]
  IC50: 24 µM

## O=C1Nc2ccccc2/C1=N/Nc1cccc(Cl)c1 [Compound S60]
Aβ40 [4]
  % inhib. @ 100 µM: 39±5%

## O=C1Nc2ccccc2/C1=N/Nc1ccc(Cl)cc1 [Compound S61]
Aβ40 [4]
  % inhib. @ 100 µM: 24±4.9%

## O=C1Nc2ccccc2/C1=N/Nc1ccc(OC(F)(F)F)cc1 [Compound S62]
Aβ40 [4]
  % inhib. @ 100 µM: 57±3%

## O=C1Nc2ccccc2/C1=N/Nc1cccc([N+](=O)[O-])c1 [Compound S63]
Aβ40 [4]
  % inhib. @ 100 µM: 29±1.2%

## CC(C)c1ccc(N/N=C2\C(=O)Nc3ccccc32)cc1 [Compound S64]
Aβ40 [4]
  % inhib. @ 100 µM: 64±4%

## COc1ccc2c(c1)/C(=N/Nc1nc(CCl)cs1)C(=O)N2 [Compound S67]
Aβ40 [4]
  IC50: 13 µM

## COc1ccc2c(c1)/C(=N/Nc1nc(-c3cccc(O)c3)cs1)C(=O)N2 [Compound S70]
Aβ40 [4]
  IC50: 16 µM

## COc1cccc(-c2csc(N/N=C3\C(=O)Nc4ccc(OC)cc43)n2)c1 [Compound S71]
Aβ40 [4]
  IC50: 34 µM

## COc1ccc2c(c1)/C(=N/Nc1nc(-c3cccc(Br)c3)cs1)C(=O)N2 [Compound S72]
Aβ40 [4]
  IC50: 40 µM

## COc1ccc2c(c1)/C(=N/N(C)c1ccc(C(C)C)cc1)C(=O)N2C [Compound S73]
Aβ40 [4]
  IC50: 11 µM

## CC(C)c1ccc(N/N=C2\C(=O)Nc3c(Br)cccc32)cc1 [Compound S80]
Aβ40 [4]; ± SD
  % inhib. @ 100 µM: 1±9.3%

## COc1ccc2c(c1)/C(=N/Nc1cccc3ccccc13)C(=O)N2 [Compound S87]
Aβ40 [4]
  IC50: 28 µM

## COc1ccc2c(c1)/C(=N/N=C/c1ccc(C(C)C)cc1)C(=O)N2 [Compound S89]
Aβ40 [4]
  IC50: 6.7 µM

## COc1ccc2c(c1)/C(=N/N=C/c1cccc(Cl)c1)C(=O)N2 [Compound S90]
Aβ40 [4]
  IC50: 11 µM

## Oc1ccc2[nH]cc(/C=N/Nc3ccc(Cl)cc3)c2c1 [Compound S92]
Aβ40 [4]
  IC50: 21 µM

Reference: publication PMC7731220, “Pharmacophore Modeling and 3D-QSAR Study of Indole and Isatin Derivatives as Antiamyloidogenic Agents Targeting Alzheimer’s Disease” (Molecules, 2020)
